Columns and labels:
C3H/HeJ mice = conditions: maximum tolerated dose at day 40, C3H/HeJ mice
Description: This example provides directions for performing in vivo toxicity tests of the compounds of the invention on C3H/HeJ mice.
Acute toxicities of the compounds of this invention are evaluated on C3H/HeJ mice (body weight 18-22 g). The MTD40 (maximum tolerated dose at day 40) values were determined by the standard procedure described by Gad and Chengelis (see, for example, “Acute Toxicology Testing,” 2nd Ed., Shayne O. Gad and Christopher P. Chengelis, pp. 186-195 (Academic Press)). In the consecutive type studies, 2 mice were dosed at low and moderate doses of 40 and 100 mg/kg. If no severe and irreversible toxicity (euthanasia is required) occurs at these doses, a new pair of animals was initiated at 180 mg/kg, which is 1.8 times higher than 100 mg/kg. Sequential dosages (about 3 doses on 3 pairs of animals, i.e. 2 mice for each drug dose) were increased by a factor of 1.8 until severe and irreversible toxicity (euthanasia is required) occurred. Then another pair of animals was initiated at the highest nonlethal dosage, and successive dosages were increased by a factor of 1.15. The result of this exercise was two dosages, one apparently nonlethal and the other lethal if severe and irreversible toxicity occurs and euthanasia is required, separated by a factor of 1.15. Six mice were dosed at each dosage. If no severe and irreversible toxicity occurred at the lower dosage and at least one with severe and irreversible toxicity occurred at the higher dose, then the lower dose was considered to be the MTD. The compounds of this invention were administered to C3H/HeJ mice by intraperitoneal injection. Drug toxicity was evaluated on mice checked daily for 45 days.

HCT116 = experiment: Cell colony formation assay, HCT116 cells; type: cell-based, human; conditions: 72 hours drug exposure
Description: (§1) This example provides directions for growing cells and testing compounds of the invention for their effect on the growth of the cells. All cells were purchased from DCIDC Tumor Repository, NCI, NIH.
The cells were incubated in a CO2 incubator at 37° C. for 5 hours for attachment to the bottom of Petri dishes. Drugs were made fresh in medium at ten times the final concentration, and then 0.3 ml of this stock solution was added to the 2.7 ml of medium in the dish. The cells were then incubated with drugs for 72 hours at 37° C. At the end of the incubation the drug-containing media were decanted, the dishes were rinsed with 4 ml of Hank's Balance Salt Solution (HBSS), 5 ml of fresh medium was added, and the dishes were returned to the incubator for colony formation. The cell colonies were counted using colony counter after incubation for 7 days for HCT116 cells and PC-3 cells and 8 days for VM46 cells, respectively.

[1] = test system: MTG-B mouse mammary Adenocarcinoma; experiment: In vivo efficacy in C3H/HeJ mice bearing MTG-B tumors; conditions: for T (Surviving days after treatment of MTG-B mouse mammary Adenocarcinoma In C3H/Hej mice): i.p., control mice survived 6 days; for CD/Taxol: ratio of extra days of survival with compound to extra days of survival with taxol, each compared to control; for T/C %: surviving days treated / surviving days control x 100%, control 6 days
Description: This example provides directions for performing in vivo efficacy tests of the compounds of the invention on C3H/HeJ mice bearing MTG-B tumors.
Studies on the compounds of this invention were performed on C3H/HeJ mice bearing […] tumors. […] Treatment was initiated at that time, with the first day of treatment designated as day 0 for calculation and plots. The mice were injected i.p. with thee drug dose levels (⅓, ½, 1×MTD) using both a single injection and the schedule of Q2D×3 (every 2 days for a total of 3 treatments at ⅓ MTD). Control groups of mice bearing 8 mm diameter tumors were treated with vehicle alone. […] When a tumor reached 1.5 g, the mouse bearing the tumor was euthanized. Surviving days measured from day 0 for mice treated with anticancer drugs (T) and surviving days measured from day 0 for control mice (C) were recorded. Tumor growth inhibition values (T/C %) were calculated using the formula T/C %=(surviving days of mice treated with an anticancer drug T/surviving days of control mice C)×100%, as shown in Table II.
The final right-hand column in Table II provides a ratio of the extra days of survival of mice treated with the compounds of the invention (compared to control) to the extra days of survival of mice treated with taxol (compared to control).

VM46 = experiment: Cell colony formation assay, VM46 cells; type: cell-based; conditions: 72 hours drug exposure
Description: as §1
(§2) Four hundred cells (HCT 116, PC-3, NCI/ADR-RES: human breast cancer cells) or five hundred cells (VM46) were plated in 60 mm Petri dishes containing 2.7 ml of medium (modified McCoy's 5a medium) containing 10% fetal bovine serum and 100 units/ml penicillin and […] streptomycin. The cells were incubated in a CO2 incubator at 37° C. for 5 hours for attachment to the bottom of Petri dishes. Drugs were made fresh in medium at ten times the final concentration, and then 0.3 ml of this stock solution was added to the 2.7 ml of medium in the dish. The cells were then incubated with drugs for 72 hours at 37° C. At the end of the incubation the drug-containing media were decanted, the dishes were rinsed with 4 ml of Hank's Balance Salt Solution (HBSS), 5 ml of fresh medium was added, and the dishes were returned to the incubator for colony formation. The cell colonies were counted using colony counter after incubation for 7 days for HCT116 cells and PC-3 cells and 8 days for VM46 cells, respectively.
(§3) Values of ID50 (the drug concentration producing 50% inhibition of colony formation) may be determined for each tested compound. The directions described in this example may be used in other cells, such as DU-145.

PC-3 = experiment: Cell colony formation assay, PC-3 cells; type: cell-based, human; conditions: 72 hours drug exposure
Description: as §1, §2, §3

| SMILES | In Vivo Toxicity MTD40 (ip, mg/kg) in C3H/Hej Mice (C3H/HeJ mice) [mg/kg] | In Vitro Efficacy: Survival (%) of HCT116 (HCT116; 1 nM) [%] | In Vitro Efficacy: Survival (%) of HCT116 (HCT116; 10 nM) [%] | In Vitro Efficacy: Survival (%) of HCT116 (HCT116; 100 nM) [%] | T (Surviving days after treatment of MTG-B mouse mammary Adenocarcinoma In C3H/Hej mice) [1] [days] | CD/Taxol [1] | T/C % [1] [%] | In vitro efficacy: Survival (%) of cells line VM46 (VM46; 1 nM) [%] | In vitro efficacy: Survival (%) of cells line VM46 (VM46; 10 nM) [%] | In vitro efficacy: Survival (%) of cells line PC-3 (PC-3; 1 nM) [%] | In vitro efficacy: Survival (%) of cells line PC-3 (PC-3; 5 nM) [%] |
| --- | --- | --- | --- | --- | --- | --- | --- | --- | --- | --- | --- |
| CC[C@@]1(OC(=O)COc2ccc(Br)cc2)C(=O)OCc2c1cc1n(c2=O)Cc2cc3ccccc3nc2-1 [Example 000315, Camptothecin-20-Oester of 4-bromophenoxyacetic acid] | >150 | 100 | 0 | 0 | 18 | 4 | 300 | 64.37 | 0 | 87.38 | 22.24 |
| CCC1(OC(=O)COc2c(F)c(F)c(F)c(F)c2F)C(=O)OCc2c1cc1n(c2=O)Cc2cc3ccccc3nc2-1 (centres unmarked) [Example 000410, Camptothecin-20-O-ester of 2,3,4,5,6-pentafluorophenoxyacetic acid] | 45 | 88.96 | 0 | 0 | 12 | 2.0 | 200 | 68.75 | 0 | 93.31 | 23.33 |
| CCC1(OC(=O)COc2ccccc2[N+](=O)[O-])C(=O)OCc2c1cc1n(c2=O)Cc2cc3ccccc3nc2-1 (centres unmarked) [Example 000411, Camptothecin-20-O-ester of 2-nitrophenoxyacetic acid] | >150 | 95.13 | 0 | 0 | 8 | .7 | 133 | 76.87 | 0 | 90.09 | 33.09 |
| CCC1(OC(=O)COc2cccc(Cl)c2Cl)C(=O)OCc2c1cc1n(c2=O)Cc2cc3ccccc3nc2-1 (centres unmarked) [Example 000412, Camptothecin-20-O-ester of 2,3-dichlorophenoxyacetic acid] | 100 | 81.36 | 0 | 0 | 17 | 3.7 | 283 | 50.72 | 0 | 83.00 | 8.68 |
| CCC1(OC(=O)COc2ccc(I)cc2)C(=O)OCc2c1cc1n(c2=O)Cc2cc3ccccc3nc2-1 (centres unmarked) [Example 000413, Camptothecin-20-Oester of 4-iodophenoxyacetic acid] | >150 | 87.62 | 0 | 0 | 18 | 4 | 300 | 73.61 | 0 | 89.51 | 33.64 |
| CCC1(OC(=O)COc2ccc(F)cc2)C(=O)OCc2c1cc1n(c2=O)Cc2cc3ccccc3nc2-1 (centres unmarked) [Example 000417, camptothecin-20-O-4-fluorophenoxyacetate] | >150 | 100 | 0 | 0 | 18 | 4 | 300 | 83.50 | 0 | 97.65 | 61.85 |
| CCC1(OC(=O)COc2ccc3c(c2)OCO3)C(=O)OCc2c1cc1n(c2=O)Cc2cc3ccccc3nc2-1 (centres unmarked) [Example 000419, Camptothecin-20-O-ester of 3,4-methylenedioxyphenoxyacetic acid] | 45 | 100 | 0 | 0 | 12 | 2.0 | 200 | 75.46 | 0 | 88.43 | 43.94 |
| CC[C@@]1(OC(=O)CO[C@@H]2C[C@H](C)CC[C@H]2C(C)C)C(=O)OCc2c1cc1n(c2=O)Cc2cc3ccccc3nc2-1 [Example 0002031, Camptothecin-20-O-ester of (−)-menthoxyacetic acid] | 100 | 100 | 0 | 0 | 12 | 2.0 | 200 | 74.84 | 0 | 100 | 69.44 |
| CC(=O)O[C@H]1C(=O)[C@@]2(C)[C@H]([C@H](OC(=O)c3ccccc3)[C@]3(O)C[C@H](OC(=O)[C@H](O)[C@@H](NC(=O)c4ccccc4)c4ccccc4)C(C)=C1C3(C)C)[C@]1(OC(C)=O)CO[C@@H]1C[C@@H]2O [Taxol, reference compound] | 40.6 | 86.40 | 0 | 0 | 9 | – | 150 | 80.59 | 70.82 | 82.80 | 41.36 |

Reference: patent USRE39707E1, “Camptothecin derivatives” (Catholic Healthcare West, priority 2001, dated 2007)
